Test results from US7208169B2, “Biphenyl carboxamides” (priority 2002, dated 2007).
Like-named read-outs stand apart in the source and are kept apart here. Each block holds one compound with its values, some of them ahead of it.

Legend:
Venturia inaequalis = assay: Venturia test (apple)/protective; format: in vivo; conditions: application rate 100 g/ha, protective, evaluation 10 days after inoculation
Description: Venturia Test (Apple)/Protective
(§1) • 24.5 parts by weight of acetone • 24.5 parts by weight of dimethylacetamide Emulsifier: • 1.0 part by weight of alkylaryl polyglycol ether
(§2) To produce a suitable preparation of active compound, 1 part by weight of active compound is mixed with the stated amounts of solvents and emulsifier, and the concentrate is diluted with water to the desired concentration.
To test for protective activity, young plants are sprayed with the preparation of active compound at the stated application rate. After the spray coating has dried on, the plants are inoculated with an aqueous conidia suspension of the apple scab pathogen Venturia inaequalis and then remain in an incubation cabin at about 20° C. in 100% relative atmospheric humidity for 1 day.
The plants are then placed in a greenhouse at about 21° C. and a relative atmospheric humidity of about 90%.
(§3) Evaluation is carried out 10 days after the inoculation. 0% means an efficacy which corresponds to that of the control, whereas an efficacy of 100% means that no infection is observed.

Puccinia recondita = assay: Puccinia test (wheat)/protective; format: in vivo; conditions: application rate 500 g/ha, protective, evaluation 10 days after inoculation
Description: Puccinia Test (Wheat)/Protective
• 25 parts by weight of N,N-dimethylacetamide Emulsifier: • 0.6 part by weight of alkylaryl polyglycol ether
(§4) To produce a suitable preparation of active compound, 1 part by weight of active compound is mixed with the stated amounts of solvent and emulsifier, and the concentrate is diluted with water to the desired concentration.
To test for protective activity, young plants are sprayed with the preparation of active compound at the stated application rate. After the spray coating has dried on, the plants are sprayed with a conidia suspension of Puccinia recondita. The plants remain in an incubation cabin at 20° C. and 100% relative atmospheric humidity for 48 hours.
The plants are then placed in a greenhouse at a temperature of about 20° C. and a relative atmospheric humidity of 80% to promote the development of rust pustules.
as §3

[1] = logP determination by HPLC on reversed-phase column (EEC Directive 79/831 Annex V.A8); format: physicochemical; conditions: pH 2.3, C18, 43° C., 0.1% aqueous phosphoric acid/acetonitrile, read-out: logP (pH2.3)
Description: The logP values given in the Preparation Examples were determined in accordance with EEC Directive 79/831 Annex V.A8 by HPLC (High Performance Liquid Chromatography) using a reversed-phase column (C 18). Temperature: 43° C.
Mobile phases for the determination in the acidic range: 0.1% aqueous phosphoric acid, acetonitrile; linear gradient from 10% acetonitrile to 90% acetonitrile.
Calibration was carried out using unbranched alkan-2-ones (having 3 to 16 carbon atoms) with known logP values (determination of the logP values by the retention times using linear interpolation between two successive alkanones).

Sphaerotheca fuliginea = assay: Sphaerotheca test (cucumber)/protective; format: in vivo; conditions: Podosphaera fuliginea, 168 h, application rate 100 g/ha, protective, evaluation 7 days after inoculation, read-out: Efficacy in %
Description: Sphaerotheca Test (Cucumber)/Protective
as §1, §2
(§5) To test for protective activity, young plants are sprayed with the preparation of active compound at the stated application rate. After the spray coating has dried on, the plants are inoculated with an aqueous spore suspension of Sphaerotheca fuliginea. The plants are then placed in a greenhouse at about 23° C. and a relative atmospheric humidity of about 70%.
(§6) Evaluation is carried out 7 days after the inoculation. 0% means an efficacy which corresponds to that of the control, whereas an efficacy of 100% means that no infection is observed.

Podosphaera leucotricha = assay: Podosphaera test (apple)/protective; format: in vivo; conditions: application rate 100 g/ha, protective, evaluation 10 days after inoculation
Description: Podosphaera Test (Apple)/Protective
as §1, §2
as §5, with “the apple mildew pathogen Podosphaera leucotricha.” for “Sphaerotheca fuliginea.”
as §3

Coriolus versicolor = assay: Inhibitory test using a giant colony of Basidiomycetes; format: cell-based; conditions: Trametes versicolor; 6 ppm active compound in nutrient agar; 26° C.; growth of fungal threads
Description: Inhibitory Test Using a Giant Colony of Basidiomycetes Mycelium pieces were punched out of a giant colony of the Basidiomycetes species Coriolus versicolor and incubated at 26° C. on a nutrient agar medium containing malt extract peptone. The inhibition of the growth of the fungal threads on active-compound-containing nutrient media was compared to the longitudinal growth on nutrient media without added active compound and rated as inhibition in percent. In this test, for example, the following compounds according to the invention of the Preparation Examples show good activity: […]

Alternaria solani = assay: Alternaria test (tomato)/protective; format: in vivo; conditions: application rate 750 g/ha, protective, evaluation 7 days after inoculation
Description: Alternaria Test (Tomato)/Protective
• 49 parts by weight of N,N-dimethylformamide Emulsifier: • 1 part by weight of alkylaryl polyglycol ether
as §4
To test for protective activity, young tomato plants are sprayed with the preparation of active compound at the stated application rate. 1 day after the treatment, the plants are inoculated with a spore suspension of Alternaria solani and then remain at 100% relative humidity and at 20° C. for 24 h. The plants then remain at 96% relative atmospheric humidity and a temperature of 20° C.
as §6

chromatographic logP ([1]; reversed-phase C18 HPLC column): 3.77
Compound: Cc1nn(C)c(F)c1C(=O)Nc1ccccc1-c1ccc2c(c1)OC(F)(F)C(F)(F)O2 [Example 1, 5-fluoro-1,3-dimethyl-N-[2-(2,2,3,3-tetrafluoro-2,3-dihydro-1,4-benzodioxin-6-yl)phenyl]-1H-pyrazole-4-carboxamide]
Efficacy in % (Venturia inaequalis): 100% | Efficacy in % (Puccinia recondita): 100% | pest or weed control at 100 g/ha (Sphaerotheca fuliginea): 98% | Efficacy in % (Podosphaera leucotricha): 100% | inhibition at 6 ppm (Coriolus versicolor): 100%

chromatographic logP ([1]; reversed-phase C18 HPLC column): 3.37
Compound: Cn1cc(C(=O)Nc2ccccc2-c2ccc3c(c2)OC(F)(F)O3)c(C(F)(F)F)n1 [Example 2, N-[2-(2,2-difluoro-1,3-benzodioxol-5-yl)-phenyl]-1-methyl-3-(trifluoromethyl)-1H-pyrazol-4-carboxamide]
Efficacy in % (Venturia inaequalis): 100% | pest or weed control at 100 g/ha (Sphaerotheca fuliginea): 100% | Efficacy in % (Podosphaera leucotricha): 100% | Efficacy in % (Alternaria solani): 100%

chromatographic logP ([1]; reversed-phase C18 HPLC column): 3.94
Compound: Cc1nc(C(F)(F)F)c(C(=O)Nc2ccccc2-c2ccc3c(c2)OC(F)(F)C(F)(F)O3)s1 [Example 10]
Efficacy in % (Venturia inaequalis): 100% | pest or weed control at 100 g/ha (Sphaerotheca fuliginea): 100% | Efficacy in % (Podosphaera leucotricha): 100%

chromatographic logP ([1]; reversed-phase C18 HPLC column): 2.46
Compound: Cn1cc(C(=O)Nc2ccccc2I)c(C(F)(F)F)n1 [Example (IV-1), N-(2-iodophenyl)-1-methyl-3-(trifluoromethyl)-1H-pyrazole-4-carboxamide]

chromatographic logP ([1]; reversed-phase C18 HPLC column): 2.49
Compound: OB(O)c1ccc2c(c1)OC(F)(F)C(F)(F)O2 [Example (V-1), 2,2,3,3-tetrafluoro-2,3-dihydro-1,4-benzodioxin-6-yl-boronic acid]

More lines, now with the values behind:

Compound: O=C(Nc1ccccc1-c1ccc2c(c1)OC(F)(F)O2)c1ccccc1C(F)(F)F [Example 3]
chromatographic logP [1]: 3.94 | pest or weed control at 100 g/ha (Sphaerotheca fuliginea): 98% | Efficacy in % (Podosphaera leucotricha): 100% | Efficacy in % (Alternaria solani): 94%

Compound: Cc1ccsc1C(=O)Nc1ccccc1-c1ccc2c(c1)OC(F)(F)O2 [Example 4]
Efficacy in % (Venturia inaequalis): 98% | chromatographic logP ([1]; reversed-phase C18 HPLC column): 3.99 | pest or weed control at 100 g/ha (Sphaerotheca fuliginea): 100%

Compound: Cc1nc(C(F)(F)F)c(C(=O)Nc2ccccc2-c2ccc3c(c2)OC(F)(F)O3)s1 [Example 5]
Efficacy in % (Venturia inaequalis): 100% | chromatographic logP ([1]; reversed-phase C18 HPLC column): 3.81 | pest or weed control at 100 g/ha (Sphaerotheca fuliginea): 100% | Efficacy in % (Podosphaera leucotricha): 100%

Compound: O=C(Nc1ccccc1-c1ccc2c(c1)OC(F)(F)C(F)(F)O2)c1ccccc1C(F)(F)F [Example 6]
Efficacy in % (Venturia inaequalis): 99% | chromatographic logP [1]: 5.93 | pest or weed control at 100 g/ha (Sphaerotheca fuliginea): 100% | Efficacy in % (Podosphaera leucotricha): 100%

Compound: Cc1nn(C)c(F)c1C(=O)Nc1c(F)cc(F)cc1-c1ccc2c(c1)OCO2 [Example 15]
chromatographic logP ([1]; reversed-phase C18 HPLC column): 2.34 | Efficacy in % (Alternaria solani): 95%

Compound: Cc1nn(C)c(F)c1C(=O)Nc1ccccc1-c1ccc2c(c1)OC(F)(F)O2 [Example 19]
Efficacy in % (Venturia inaequalis): 96% | chromatographic logP ([1]; reversed-phase C18 HPLC column): 3.22 | pest or weed control at 100 g/ha (Sphaerotheca fuliginea): 92% | Efficacy in % (Podosphaera leucotricha): 100% | inhibition at 6 ppm (Coriolus versicolor): 100%
